According to patent US8476484B2, “Transgenic clawed frog embryos and use thereof as detectors of endocrine disrupters in the environment” (Centre National de la Recherche Scientifique (CNRS), priority 2002, dated 2013):
“Also recorded” adds a separate entry of the source.

Experiments:
[1] = system: TRE-tk-EGFP construct (rat malic enzyme TRE); assay: Somatic transgenesis in xenopus dorsal muscle with TRE-tk-EGFP; type: in vivo; details: T3 10 nM vs -T3; detected four days later; FIG. 7
Method: FIG. 7: Somatic transgenesis by injection, into the dorsal muscle of xenopus, of the construct TRE-tk-EGFP. The animals are transfected by injection into the dorsal muscle of […] of the construct TRE-tk-EGFP. The animals are then treated for 48 hours in the presence (+T3 10 nM) or in the absence (−T3) of T3 thyroid hormone. […] The somatic transgenesis is carried out either: • by injection of 1 μl of naked DNA into the dorsal muscle of the embryo. The DNA concentration is 100 ng/μl to 5 μg/μl in 0.07 M NaCL; • by microinjection of 1 μl of DNA/PEI (polyethyleneimine) into the brain of the embryo. The DNA concentration is between 50 and 500 ng/μl in 5% glucose. 3.3. The TRE-tk-EGFP construct was injected into the dorsal muscle of a xenopus embryo ([…]). Half the animals are treated with T3 thyroid hormone at 10 nM.

[2] = system: xenopus stromelysin 3 promoter (several TREs) coupled to luciferase in XTC cells; assay: XTC cell transfection with the stromelysin 3/luciferase construct; type: cell-based; details: T3 10^-8 M in culture medium vs absence of T3 (basal level), FIG. 4
Method: The construct is transferred into XTC cells by complexing the DNA with PEI (22 kDA, at 6 equivalents), the transfected cells are cultured in the presence (10^−8 M) or in the absence (−T3) of T3 thyroid hormone.
The transgenic constructs are tested in XTC xenopus cells in culture.
The XTC cells are obtained from carcasses of xenopus tadpoles just before metamorphosis (Pudney et al., 1973). The cells are cultured at ambient temperature, for up to 20 passages.
The cells are transfected by complexing the DNA with 22 kDa polyethyleneimine (PEI) at 6 equivalents (Ouatas et al., 1998).
The protocol makes it possible to rapidly verify the constructs and thus to verify that said constructs respond correctly to the substances, such as the T3 thyroid hormone when it is injected into the cell culture medium.

[3] = system: TRE-tk-luciferase construct (rat malic enzyme TRE); assay: Somatic transgenesis with TRE-tk-luciferase in dorsal muscle of pretreated xenopus tadpoles; type: in vivo; details: tadpoles pretreated with perchlorate and T3 10^-11 M; then T3 10^-8 M for 48 hours vs control; FIG. 6
Method: FIG. 6: Somatic transgenesis by injection, into the dorsal muscle of pretreated xenopus animals, of the construct TRE-tk-luciferase. The animals are pretreated for 48 hours with 10^−11 M of T3 thyroid hormone, and then rinsed for 24 hours. The animals are then transfected by injection into the dorsal muscle of 1 mg/animal of the construct TRE-tk-luciferase. The animals are then treated for 48 hours (10^−8 M) or in the absence (−T3) of thyroid hormone. Two days after treatment, the luciferase expression is measured. […] According to an alternative method, the transgenic animals according to the invention are pretreated with perchlorate for one month at 1 g/l, and are then sensitized with the test compound, such as the T3 hormone (10^−11 M), for 18 to 48 hours without food. The animals are then washed in a medium containing no T3 and are fed for 36 hours. The construct (for example TRE-tk-luciferase) is injected into the dorsal muscle of the xenopus embryo (1 mg/animal). Out of the 24 tadpoles that were pretreated and then subjected to somatic transgenesis, twelve tadpoles are treated for 48 hours with T3 thyroid hormone at 10^−8 M; the other twelve tadpoles that remain serve as a control.

[4] = system: TRE-tk-luciferase construct (rat malic enzyme TRE); assay: Somatic transgenesis in xenopus dorsal muscle with TRE-tk-luciferase; type: in vivo; details: T3 10^-8 M vs -T3; measured four days after treatment; FIG. 5
Method: The somatic transgenesis is carried out either: • by injection of 1 μl of naked DNA into the dorsal muscle of the embryo. The DNA concentration is 100 ng/μl to 5 μg/μl in 0.07 M NaCL; • by microinjection of 1 μl of DNA/PEI (polyethyleneimine) into the brain of the embryo. The DNA concentration is between 50 and 500 ng/μl in 5% glucose. 3.1. […] 3.2.

[5] = system: DR4(X3)-GFP construct (consensus TRE); details: thyroid hormone 10^-8 M in the water of the aquarium; FIG. 8
Method: The germinal transgenesis is carried out according to the protocol described by Kroll and Amaya (1996).

N[C@@H](Cc1cc(I)c(Oc2ccc(O)c(I)c2)c(I)c1)C(=O)O [T3 thyroid hormone, Tri-iodothyronine]
expression of the reporter protein (EGFP) [1]: much greater expression; also recorded: bioluminescence is visible in the cells of the treated animal | expression of the luciferase reporter protein [2]: greater expression | expression of the reporter protein (luciferase) [3]: much greater expression | expression of the reporter protein (luciferase) [4]: much greater expression | emission of fluorescence (GFP) [5]: emission of fluorescence throughout the nervous system and in the limb buds
